According to ChEMBL document CHEMBL1138025, “Nocathiacin I analogues: synthesis, in vitro and in vivo biological activity of novel semi-synthetic thiazolyl peptide antibiotics” (Bioorg Med Chem Lett, 2004):
In brackets after ≈: the same amount, converted by molar mass.

Legend:
Staphylococcus aureus = assay: In vitro antibacterial activity against methicillin-sensitive Staphylococcus aureus A15090; type: functional
Enterococcus faecalis = assay: In vitro antibacterial activity against methicillin-sensitive Enterococcus faecalis A20688; type: functional
Streptococcus pneumoniae = assay: In vitro antibacterial activity against penicillin-resistant Streptococcus pneumoniae A28272; type: functional
Mus musculus = assay: In vivo efficacy (PD50) against lethal Staphylococcus aureus systemic infection model in mice; type: functional; settings: read-out: PD50
[1] = Equilibrium water solubility at pH 3.3; type: physicochemical
[2] = Equilibrium water solubility at pH 3.4; type: physicochemical
[3] = Equilibrium water solubility at pH 2.9; type: physicochemical
[4] = Equilibrium water solubility at pH 3.0; type: physicochemical
[5] = Equilibrium water solubility at pH 3.2; type: physicochemical
[6] = Equilibrium water solubility at pH 2.8; type: physicochemical
[7] = Equilibrium water solubility at pH 3.1; type: physicochemical

Row | Compound | MIC (Staphylococcus aureus) | MIC (Enterococcus faecalis) | MIC (Streptococcus pneumoniae) | ED50 (Mus musculus) | solubility thermodynamic [1] | solubility thermodynamic [2] | solubility thermodynamic [3] | solubility thermodynamic [4] | solubility thermodynamic [5] | solubility thermodynamic [6] | solubility thermodynamic [7]
1 | CO/C(C)=C1/NC(=O)[C@H]([C@@H](C)O)NC(=O)c2csc(n2)-c2cc(O)c(-c3nc(C(=O)NC(CN(C)C)C(N)=O)cs3)nc2-c2csc(n2)[C@@H]2COC(=O)c3c4c5c(cccc5n3O)COC(=O)[C@@H](O[C@H]3C[C@](C)(O)[C@H](N(C)C)[C@H](C)O3)[C@@H](OC4)[C@H](NC(=O)c3csc1n3)c1nc(cs1)C(=O)N2 (stereo not given in full) | 0.06 µg/mL (≈ 0.0405 µM) | 0.12 µg/mL (≈ 0.0809 µM) | 0.03 µg/mL (≈ 0.0202 µM) | < 0.62 mg/kg | > 10000 µg/mL |  |  |  |  |  | 
2 | CO/C(C)=C1/NC(=O)[C@H]([C@@H](C)O)NC(=O)c2csc(n2)-c2cc(O)c(-c3nc(C(=O)NC(CN(C)CCO)C(N)=O)cs3)nc2-c2csc(n2)[C@@H]2COC(=O)c3c4c5c(cccc5n3O)COC(=O)[C@@H](O[C@H]3C[C@](C)(O)[C@H](N(C)C)[C@H](C)O3)[C@@H](OC4)[C@H](NC(=O)c3csc1n3)c1nc(cs1)C(=O)N2 (stereo not given in full) | 0.01 µg/mL (≈ 0.00661 µM) | 0.06 µg/mL (≈ 0.0397 µM) | 0.01 µg/mL (≈ 0.00661 µM) | 0.8 mg/kg |  | > 10000 µg/mL |  |  |  |  | 
3 | CO/C(C)=C1/NC(=O)[C@H]([C@@H](C)O)NC(=O)c2csc(n2)-c2cc(O)c(-c3nc(C(=O)NC(CN(C)CCN(C)C)C(N)=O)cs3)nc2-c2csc(n2)[C@@H]2COC(=O)c3c4c5c(cccc5n3O)COC(=O)[C@@H](O[C@H]3C[C@](C)(O)[C@H](N(C)C)[C@H](C)O3)[C@@H](OC4)[C@H](NC(=O)c3csc1n3)c1nc(cs1)C(=O)N2 (stereo not given in full) | 0.06 µg/mL (≈ 0.039 µM) | 0.5 µg/mL (≈ 0.325 µM) | 0.007 µg/mL (≈ 0.00455 µM) | 3.3 mg/kg |  |  | > 10000 µg/mL |  |  |  | 
4 | CO/C(C)=C1/NC(=O)[C@H]([C@@H](C)O)NC(=O)c2csc(n2)-c2cc(O)c(-c3nc(C(=O)NC(CN(C)CCCNc4ccncc4)C(N)=O)cs3)nc2-c2csc(n2)[C@@H]2COC(=O)c3c4c5c(cccc5n3O)COC(=O)[C@@H](O[C@H]3C[C@](C)(O)[C@H](N(C)C)[C@H](C)O3)[C@@H](OC4)[C@H](NC(=O)c3csc1n3)c1nc(cs1)C(=O)N2 (stereo not given in full) | 1 µg/mL (≈ 0.624 µM) | 0.5 µg/mL (≈ 0.312 µM) | 0.25 µg/mL (≈ 0.156 µM) | > 10 mg/kg |  |  |  | > 3000 µg/mL |  |  | 
5 | CO/C(C)=C1/NC(=O)[C@H]([C@@H](C)O)NC(=O)c2csc(n2)-c2cc(O)c(-c3nc(C(=O)NC(CN4CCCC4)C(N)=O)cs3)nc2-c2csc(n2)[C@@H]2COC(=O)c3c4c5c(cccc5n3O)COC(=O)[C@@H](O[C@H]3C[C@](C)(O)[C@H](N(C)C)[C@H](C)O3)[C@@H](OC4)[C@H](NC(=O)c3csc1n3)c1nc(cs1)C(=O)N2 (stereo not given in full) | 0.06 µg/mL (≈ 0.0398 µM) | 0.5 µg/mL (≈ 0.331 µM) | 0.01 µg/mL (≈ 0.00663 µM) | 2.5 mg/kg |  |  | > 3000 µg/mL |  |  |  | 
6 | CNCC(NC(=O)c1csc(-c2nc3c(cc2O)-c2nc(cs2)C(=O)N[C@@H]([C@@H](C)O)C(=O)N/C(=C(\C)OC)c2nc(cs2)C(=O)N[C@@H]2c4nc(cs4)C(=O)N[C@@H](COC(=O)c4c5c6c(cccc6n4O)COC(=O)[C@@H](O[C@H]4C[C@](C)(O)[C@H](N(C)C)[C@H](C)O4)[C@H]2OC5)c2nc-3cs2)n1)C(N)=O (stereo not given in full) | 2 µg/mL (≈ 1.36 µM) | 8 µg/mL (≈ 5.45 µM) | 0.001 µg/mL (≈ 0.000681 µM) | 1.6 mg/kg |  |  | > 3500 µg/mL |  |  |  | 
7 | CO/C(C)=C1/NC(=O)C([C@@H](C)O)NC(=O)c2csc(n2)-c2cc(O)c(-c3nc(C(=O)NC(CNCCCn4ccnc4)C(N)=O)cs3)nc2-c2csc(n2)[C@@H]2COC(=O)c3c4c5c(cccc5n3O)COC(=O)[C@@H](O[C@H]3C[C@](C)(O)[C@H](N(C)C)[C@H](C)O3)[C@@H](OC4)[C@H](NC(=O)c3csc1n3)c1nc(cs1)C(=O)N2 (stereo not given in full) | 0.5 µg/mL (≈ 0.32 µM) | 1 µg/mL (≈ 0.64 µM) | 0.06 µg/mL (≈ 0.0384 µM) | 10 mg/kg |  |  |  |  | > 10000 µg/mL |  | 
8 | CO/C(C)=C1/NC(=O)[C@H]([C@@H](C)O)NC(=O)c2csc(n2)-c2cc(O)c(-c3nc(C(=O)NC(CNCCN4CCN(C)CC4)C(N)=O)cs3)nc2-c2csc(n2)[C@@H]2COC(=O)c3c4c5c(cccc5n3O)COC(=O)[C@@H](O[C@H]3C[C@](C)(O)[C@H](N(C)C)[C@H](C)O3)[C@@H](OC4)[C@H](NC(=O)c3csc1n3)c1nc(cs1)C(=O)N2 (stereo not given in full) | 0.25 µg/mL (≈ 0.158 µM) | 4 µg/mL (≈ 2.53 µM) | 0.01 µg/mL (≈ 0.00633 µM) | > 10 mg/kg |  |  |  |  |  | > 2900 µg/mL | 
9 | CO/C(C)=C1/NC(=O)[C@H]([C@@H](C)O)NC(=O)c2csc(n2)-c2cc(O)c(-c3nc(C(=O)NC(CN4CCN(CCN(C)C)CC4)C(N)=O)cs3)nc2-c2csc(n2)[C@@H]2COC(=O)c3c4c5c(cccc5n3O)COC(=O)[C@@H](O[C@H]3C[C@](C)(O)[C@H](N(C)C)[C@H](C)O3)[C@@H](OC4)[C@H](NC(=O)c3csc1n3)c1nc(cs1)C(=O)N2 (stereo not given in full) | 0.5 µg/mL (≈ 0.314 µM) | 0.12 µg/mL (≈ 0.0752 µM) | 0.25 µg/mL (≈ 0.157 µM) | 5.3 mg/kg |  | > 3800 µg/mL |  |  |  |  | 
10 | CO/C(C)=C1/NC(=O)[C@H]([C@@H](C)O)NC(=O)c2csc(n2)-c2cc(O)c(-c3nc(C(=O)NC(CN4CCN(CCOCCO)CC4)C(N)=O)cs3)nc2-c2csc(n2)[C@@H]2COC(=O)c3c4c5c(cccc5n3O)COC(=O)[C@@H](O[C@H]3C[C@](C)(O)[C@H](N(C)C)[C@H](C)O3)[C@@H](OC4)[C@H](NC(=O)c3csc1n3)c1nc(cs1)C(=O)N2 (stereo not given in full) | 0.5 µg/mL (≈ 0.31 µM) | 1 µg/mL (≈ 0.62 µM) | 0.12 µg/mL (≈ 0.0745 µM) | 1.34 mg/kg |  |  |  |  |  |  | > 3000 µg/mL
